Assay results: patent publication US20230141603A1, “BENZODIAZEPINE DERIVATIVES AS GABA A GAMMA1 PAM” (Hoffmann-La Roche Inc., priority 2021, published 2023)

Target: T1, h-GABAA α5β2γ1 (Homo sapiens, UniProt P31644+Q8N1C3)
T1 construct: expressed in transfected cells; host or cells: HEK293F cells (ThermoFisher R79007), membranes
T1 sequence (P31644 32-462): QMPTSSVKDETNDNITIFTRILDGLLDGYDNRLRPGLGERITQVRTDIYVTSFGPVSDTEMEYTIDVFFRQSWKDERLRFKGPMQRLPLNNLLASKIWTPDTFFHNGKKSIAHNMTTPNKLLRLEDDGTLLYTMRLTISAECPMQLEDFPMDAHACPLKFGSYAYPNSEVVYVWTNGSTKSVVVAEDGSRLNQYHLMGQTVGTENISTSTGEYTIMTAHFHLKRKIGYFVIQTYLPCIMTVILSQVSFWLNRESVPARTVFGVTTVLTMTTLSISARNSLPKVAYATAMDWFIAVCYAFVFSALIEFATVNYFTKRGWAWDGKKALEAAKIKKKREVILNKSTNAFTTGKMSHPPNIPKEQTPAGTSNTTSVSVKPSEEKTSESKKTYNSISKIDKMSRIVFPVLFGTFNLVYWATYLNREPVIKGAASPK
T1 sequence (P47870 25-512 partner limits assumed): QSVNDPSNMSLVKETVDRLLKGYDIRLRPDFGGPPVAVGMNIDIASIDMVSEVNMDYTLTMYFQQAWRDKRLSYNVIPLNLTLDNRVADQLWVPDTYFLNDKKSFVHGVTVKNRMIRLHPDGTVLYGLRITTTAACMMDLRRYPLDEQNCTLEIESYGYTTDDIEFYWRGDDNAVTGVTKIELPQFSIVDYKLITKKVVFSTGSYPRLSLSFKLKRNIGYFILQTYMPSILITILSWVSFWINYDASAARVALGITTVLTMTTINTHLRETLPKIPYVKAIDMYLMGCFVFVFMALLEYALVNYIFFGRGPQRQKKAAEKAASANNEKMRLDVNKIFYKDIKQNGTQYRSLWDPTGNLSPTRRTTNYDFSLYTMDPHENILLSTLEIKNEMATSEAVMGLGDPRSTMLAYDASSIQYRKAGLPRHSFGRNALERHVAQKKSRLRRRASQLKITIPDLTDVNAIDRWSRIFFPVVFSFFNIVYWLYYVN
T1 sequence (Q8N1C3 36-465): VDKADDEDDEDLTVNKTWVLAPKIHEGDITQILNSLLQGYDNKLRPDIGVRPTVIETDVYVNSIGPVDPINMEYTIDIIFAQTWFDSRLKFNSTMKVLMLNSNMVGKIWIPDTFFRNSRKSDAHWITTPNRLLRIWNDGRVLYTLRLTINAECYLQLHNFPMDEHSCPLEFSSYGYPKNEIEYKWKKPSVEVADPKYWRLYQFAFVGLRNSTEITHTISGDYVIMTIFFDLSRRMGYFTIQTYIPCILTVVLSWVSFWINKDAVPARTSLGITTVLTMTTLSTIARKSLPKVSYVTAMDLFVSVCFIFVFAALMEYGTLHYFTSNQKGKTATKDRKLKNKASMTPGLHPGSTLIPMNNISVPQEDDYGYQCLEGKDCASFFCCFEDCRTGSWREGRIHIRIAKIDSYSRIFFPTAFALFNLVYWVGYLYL
Experiment: Radioligand binding assay, [3H]RO7239181 competition, HEK293F membranes
Procedure: The affinity of compounds at GABAA γ1 subunit-containing receptors was measured by competition for [^3H]RO7239181 (67.3 Ci/mmol; Roche) binding to membranes from HEK293F cells (ThermoFisher R79007) expressing human (transiently transfected) receptors of composition […], α2β2γ1, α1β2γ1. For better protein expression of the α2 subunit-containing receptors, the 28 amino acid long signal peptide (Met1 to Ala28) of the human GABAA α2 subunit was substituted by the 31 amino acid long signal peptide (Met1 to Ser31) of human GABAA α5 subunit.
Harvested pellets from HEK293F cells expressing the different GABAA receptor subtypes were resuspended in Mannitol Buffer pH 7.2-7.4 (Mannitol 0.29M, Triethylamine 10 mM, Acetic acid 10 mM, EDTA 1 mM plus protease inhibitors (20 tablets Complete, Roche Diagnostics Cat. No. 05 056 489 001 per liter)), washed two times and then resuspended at 1:10 to 1:15 dilution in the same buffer. Cell disruption was performed by stirring the suspension in a Parr vessel #4637 at 435 psi for 15 minutes, and then the suspensions were centrifuged at 1000×g for 15 minutes at 4° C. (Beckman Avanti J-HC; rotor JS-4.2). The supernatant (S1) was transferred in a 21 Schott flask and the pellet (P1) was resuspended with Mannitol Buffer up to 175 ml. The resuspended pellet was transferred into a 250 ml Corning centrifugal beaker and centrifuged at 1500×g for 10 minutes at 4° C. (Beckman Avanti J-HC; rotor JS-4.2). The supernatant (S1) was then transferred in the 21 Schott flask and the pellet was discarded. The supernatants (S1) were centrifuged in 500 ml Beckman polypropylene centrifugal beaker at 15′000×g for 30 minutes at 4° C. (Beckman Avanti J-20 XP; rotor JLA-10.500). The pellet (P2) was resuspended with Mannitol Buffer 1:1 and frozen at −80° C. The supernatant (S2) was centrifuged in 100 ml Beckman polypropylene centrifugal tubes at 48000×g for 50 minutes at 4° C. (Beckman Avanti J-20 XP; rotor JA-18). The supernatant (S3) was discarded and the pellet (P3) was resuspended with 1:1 Mannitol Buffer. The P2 and P3 protein concentration was determined with the BIORAD Standard assay method with bovine serum albumin as standard and measured on the NANO-Drop 1000. The membrane suspension was aliquots (500 μl per tube) and stored at −80° C. until required. Membrane homogenates were resuspended and polytronised (Polytron PT1200E Kinematica AG) in Potassium Phosphate 10 mM, KCl 100 mM binding buffer at pH 7.4 to a final assay concentration determined with a previous experiment.
Radioligand binding assays were carried out in a volume of 200 μL (96-well plates) which contained 100 μL of cell membranes, [^3H]RO7239181 at a concentration of 1.5 nM (α5β2γ1) or 20-30 nM (α1β2γ1, α2β2γ1) and the test compound in the range of [0.3-10000]×10^−9 M. Nonspecific binding was defined by 10×10^−6 (α5β2γ1) and 30×10^−6 M RO7235136 and typically represented less than 5% (α5β2γ1) and less than 20% (α1β2γ1, α2β2γ1) of the total binding. Assays were incubated to equilibrium for 1 hour at 4° C. and then, membranes were filtered onto unifilter (96-well white microplate with bonded GF/C filters preincubated 20-50 minutes in 0.3% Polyethylenimine) with a Filtermate 196 harvester (Packard BioScience) and washed 4 times with cold Potassium Phosphate 10 mM pH 7.4, KCl 100 mM binding buffer. After drying, filter-retained radioactivity was detected by liquid scintillation counting. Ki values were calculated using Excel-Fit (Microsoft) and are the means of two determinations.

| SMILES | Ki |
| --- | --- |
| Cc1nnc2n1-c1ccc(C(C)(F)F)c(Cl)c1C(c1c(F)cccc1F)=NC2 [Example 22, 7-chloro-8-(1,1-difluoroethyl)-6-(2,6-difluorophenyl)-1-methyl-4H-[1,2,4]triazolo[4,3-a][1,4]benzodiazepine] | 4.3 nM |
| Fc1cccc(F)c1C1=NCc2nncn2-c2ccc(I)c(Cl)c21 [Example 34, 7-chloro-6-(2,6-difluorophenyl)-8-iodo-4H-[1,2,4]triazolo[4,3-a][1,4]benzodiazepine] | 0.3 nM |
| Fc1cccc(F)c1C1=NCc2nncn2-c2ccc(Br)c(Cl)c21 [Example 7, 8-bromo-7-chloro-6-(2,6-difluorophenyl)-4H-[1,2,4]triazolo[4,3-a][1,4]benzodiazepine] | 0.4 nM |
| Fc1cccnc1C1=NCc2nnc(-c3cccnn3)n2-c2ccc(C(F)(F)F)c(Cl)c21 [Example 72, 7-chloro-6-(3-fluoro-2-pyridyl)-1-pyridazin-3-yl-8-(trifluoromethyl)-4H-[1,2,4]triazolo[4,3-a][1,4]benzodiazepine] | 5.4 nM |
| Fc1cccnc1C1=NCc2nncn2-c2ccc(Br)c(Cl)c21 [Example 29, 8-bromo-7-chloro-6-(3-fluoro-2-pyridyl)-4H-[1,2,4]triazolo[4,3-a][1,4]benzodiazepine] | 7.2 nM |
| Fc1cccnc1C1=NCc2nnc(C3CC3)n2-c2ccc(Br)c(Cl)c21 [Example 77, 8-bromo-7-chloro-1-cyclopropyl-6-(3-fluoro-2-pyridyl)-4H-[1,2,4]triazolo[4,3-a][1,4]benzodiazepine] | 2.8 nM |
| Fc1cccnc1C1=NCc2nnc(-c3cccnn3)n2-c2ccc(Br)c(Cl)c21 [Example 45, 8-bromo-7-chloro-6-(3-fluoro-2-pyridyl)-1-pyridazin-3-yl-4H-[1,2,4]triazolo[4,3-a][1,4]benzodiazepine] | 3 nM |
| CC(F)(F)c1ccc2c(c1Cl)C(c1c(F)cccc1F)=NCc1nncn1-2 [Example 21, 7-chloro-8-(1,1-difluoroethyl)-6-(2,6-difluorophenyl)-4H-[1,2,4]triazolo[4,3-a][1,4]benzodiazepine] | 4.6 nM |
| OCc1nnc2n1-c1ccc(Br)c(Cl)c1C(c1c(F)cccc1F)=NC2 [Example 33, [8-bromo-7-chloro-6-(2,6-difluorophenyl)-4H-[1,2,4]triazolo[4,3-a][1,4]benzodiazepin-1-yl]methanol] | 1.5 nM |
| Cc1nnc2n1-c1ccc(Cl)c(Cl)c1C(c1ncccc1F)=NC2 [Example 71, 7,8-dichloro-6-(3-fluoro-2-pyridyl)-1-methyl-4H-[1,2,4]triazolo[4,3-a][1,4]benzodiazepine] | 5.7 nM |
| Clc1cccnc1C1=NCc2nnc(-c3cccnn3)n2-c2ccc(Br)c(Cl)c21 [Example 47, 8-bromo-7-chloro-6-(3-chloro-2-pyridyl)-1-pyridazin-3-yl-4H-[1,2,4]triazolo[4,3-a][1,4]benzodiazepine] | 1.3 nM |
| Fc1ccccc1C1=NCc2nnc(-c3cccnn3)n2-c2ccc(Br)c(Cl)c21 [Example 3, 8-bromo-7-chloro-6-(2-fluorophenyl)-1-pyridazin-3-yl-4H-[1,2,4]triazolo[4,3-a][1,4]benzodiazepine] | 1.5 nM |
| COc1ccc2c(c1Cl)C(c1c(F)cccc1F)=NCc1nnc(-c3ccncn3)n1-2 [Example 61, 7-chloro-6-(2,6-difluorophenyl)-8-methoxy-1-pyrimidin-4-yl-4H-[1,2,4]triazolo[4,3-a][1,4]benzodiazepine] | 4.2 nM |
| COc1ccc2c(c1Cl)C(c1c(F)cccc1F)=NCc1nnc(C3CC3)n1-2 [Example 79, 7-chloro-1-cyclopropyl-6-(2,6-difluorophenyl)-8-methoxy-4H-[1,2,4]triazolo[4,3-a][1,4]benzodiazepine] | 6.8 nM |
| Cn1cc(-c2nnc3n2-c2ccc(C(F)(F)F)c(Cl)c2C(c2ncccc2F)=NC3)cn1 [Example 70, 7-chloro-6-(3-fluoro-2-pyridyl)-1-(1-methylpyrazol-4-yl)-8-(trifluoromethyl)-4H-[1,2,4]triazolo[4,3-a][1,4]benzodiazepine] | 6.8 nM |
| Cc1ccc2c(c1Cl)C(c1c(F)cccc1F)=NCc1n[nH]c(=O)n1-2 [Example 16, 7-chloro-6-(2,6-difluorophenyl)-8-methyl-2,4-dihydro-[1,2,4]triazolo[4,3-a][1,4]benzodiazepin-1-one] | 1.8 nM |
| Cc1nnc2n1-c1ccc(Br)c(Cl)c1C(c1ncccc1F)=NC2 [Example 24, 8-bromo-7-chloro-6-(3-fluoro-2-pyridyl)-1-methyl-4H-[1,2,4]triazolo[4,3-a][1,4]benzodiazepine] | 3.5 nM |
| Fc1ccccc1C1=NCc2nncn2-c2ccc(Br)c(Cl)c21 [Example 8, 8-bromo-7-chloro-6-(2-fluorophenyl)-4H-[1,2,4]triazolo[4,3-a][1,4]benzodiazepine] | 2.3 nM |
| Cc1ccc2c(c1Cl)C(c1c(F)cccc1F)=NCc1nnc(C)n1-2 [Example 20, 7-chloro-6-(2,6-difluorophenyl)-1,8-dimethyl-4H-[1,2,4]triazolo[4,3-a][1,4]benzodiazepine] | 2.9 nM |
| Fc1cccnc1C1=NCc2nnc(-c3ccncn3)n2-c2ccc(Br)c(Cl)c21 [Example 46, 8-bromo-7-chloro-6-(3-fluoro-2-pyridyl)-1-pyrimidin-4-yl-4H-[1,2,4]triazolo[4,3-a][1,4]benzodiazepine] | 3.9 nM |
| Cl.NCc1nnc2n1-c1ccc(Br)c(Cl)c1C(c1c(F)cccc1F)=NC2 [Example 36, [8-bromo-7-chloro-6-(2,6-difluorophenyl)-4H-[1,2,4]triazolo[4,3-a][1,4]benzodiazepin-1-yl]methanamine hydrochloride] | 1.8 nM |
